Source: ChEMBL document CHEMBL1150196, “Isolation and structure of cytostatic steroidal saponins from the African medicinal plant Balanites aegyptica” (1991)
In brackets after ≈: the same amount, converted by molar mass.

Tested on: P388
Experiment: Cytotoxicity against mouse P388 cells
Assay type: functional
Settings: read-out: ED50 (the source's name)

| Structure (SMILES) | EC50 |
| --- | --- |
| C[C@H]1CC[C@@]2(OC1)O[C@H]1C[C@H]3[C@@H]4CC=C5C[C@@H](O[C@@H]6O[C@H](CO)[C@@H](O[C@@H]7O[C@H](CO)[C@@H](O)[C@H](O[C@@H]8O[C@H](CO)[C@@H](O)[C@H](O)[C@H]8O)[C@H]7O)[C@H](O)[C@H]6O[C@@H]6O[C@@H](C)[C@H](O)[C@@H](O)[C@H]6O)CC[C@]5(C)[C@H]4CC[C@]3(C)[C@H]1[C@@H]2C [BALANITIN 4] | 0.41 µg/mL (≈ 0.392 µM) |
| C[C@H]1CC[C@@]2(OC1)O[C@H]1C[C@H]3[C@@H]4CC=C5C[C@@H](O[C@@H]6O[C@H](CO)[C@@H](O[C@@H]7O[C@H](CO)[C@@H](O)[C@H](O[C@@H]8O[C@@H](C)[C@H](O)[C@@H](O)[C@H]8O)[C@H]7O)[C@H](O)[C@H]6O[C@@H]6O[C@@H](C)[C@H](O)[C@@H](O)[C@H]6O)CC[C@]5(C)[C@H]4CC[C@]3(C)[C@H]1[C@@H]2C [BALANITIN 5] | 2.4 µg/mL (≈ 2.33 µM) |
| C[C@H]1CC[C@@]2(OC1)O[C@H]1C[C@H]3[C@@H]4CC=C5C[C@@H](O[C@@H]6O[C@H](CO)[C@@H](O[C@@H]7O[C@H](CO)[C@@H](O)[C@H](O)[C@H]7O)[C@H](O)[C@H]6O[C@@H]6O[C@@H](C)[C@H](O)[C@@H](O)[C@H]6O)CC[C@]5(C)[C@H]4CC[C@]3(C)[C@H]1[C@@H]2C [BALANITIN 6] | 0.21 µg/mL (≈ 0.237 µM) |
| C[C@H]1CC[C@@]2(OC1)O[C@H]1C[C@H]3[C@@H]4CC=C5C[C@@H](O[C@@H]6O[C@H](CO)[C@@H](O[C@@H]7O[C@H](CO)[C@@H](O)[C@H](O[C@@H]8OC[C@@H](O)[C@H](O)[C@H]8O)[C@H]7O)[C@H](O)[C@H]6O[C@@H]6O[C@@H](C)[C@H](O)[C@@H](O)[C@H]6O)CC[C@]5(C)[C@H]4CC[C@]3(C)[C@H]1[C@@H]2C [BALANITIN 7] | 0.22 µg/mL (≈ 0.216 µM) |
| O=c1[nH]cc(F)c(=O)[nH]1 [FLUOROURACIL] | 0.08 µg/mL (≈ 0.615 µM) |
